Results: the CheMixHub ionic liquid set
± gives the uncertainty stated by the source.

Assay: xn = mol fraction of the nth substance listed

COCCOCCO + CCCC[n+]1ccn(C)c1.F[P-](F)(F)(F)(F)F
100 kPa
Conditions | viscosity [mPa·s]
283.15 K, x2 = 0.05331 | 7.5 ± 0.092
283.15 K, x2 = 0.09804 | 9.72 ± 0.12
283.15 K, x2 = 0.19 | 15.75 ± 0.2
283.15 K, x2 = 0.2921 | 25.91 ± 0.35
283.15 K, x2 = 0.384 | 39.17 ± 0.54
283.15 K, x2 = 0.4556 | 57.5 ± 0.81
283.15 K, x2 = 0.5782 | 97.4 ± 1.8
283.15 K, x2 = 0.6754 | 141.2 ± 3.2
283.15 K, x2 = 0.7826 | 218.3 ± 6.1
283.15 K, x2 = 0.8947 | 394 ± 15
283.15 K, x2 = 0.9428 | 522 ± 22
293.15 K, x2 = 0.04991 | 5.319 ± 0.066
293.15 K, x2 = 0.09685 | 6.745 ± 0.085
293.15 K, x2 = 0.1962 | 10.81 ± 0.14
293.15 K, x2 = 0.291 | 16.42 ± 0.22
293.15 K, x2 = 0.4 | 25.65 ± 0.36
293.15 K, x2 = 0.5144 | 42.34 ± 0.62
293.15 K, x2 = 0.5864 | 52.18 ± 0.77
293.15 K, x2 = 0.673 | 67.5 ± 1.1
293.15 K, x2 = 0.7866 | 103.1 ± 2.1
293.15 K, x2 = 0.8943 | 187.6 ± 5
293.15 K, x2 = 0.945 | 239.3 ± 7.2
303.15 K, x2 = 0.05183 | 4.124 ± 0.052
303.15 K, x2 = 0.09655 | 5.063 ± 0.064
303.15 K, x2 = 0.1884 | 7.095 ± 0.092
303.15 K, x2 = 0.2922 | 11.15 ± 0.15
303.15 K, x2 = 0.3935 | 16.31 ± 0.23
303.15 K, x2 = 0.5055 | 26.04 ± 0.38
303.15 K, x2 = 0.5816 | 33.29 ± 0.51
303.15 K, x2 = 0.6785 | 45.05 ± 0.72
303.15 K, x2 = 0.7725 | 63.3 ± 1
303.15 K, x2 = 0.9022 | 113.3 ± 2.4
303.15 K, x2 = 0.9392 | 142.8 ± 3.4
313.15 K, x2 = 0.04989 | 3.16 ± 0.04
313.15 K, x2 = 0.09747 | 3.842 ± 0.049
313.15 K, x2 = 0.1914 | 5.61 ± 0.073
313.15 K, x2 = 0.2888 | 8.03 ± 0.11
313.15 K, x2 = 0.3854 | 11.32 ± 0.16
313.15 K, x2 = 0.4724 | 15.18 ± 0.22
313.15 K, x2 = 0.5945 | 23.13 ± 0.35
313.15 K, x2 = 0.6785 | 31.11 ± 0.5
313.15 K, x2 = 0.7835 | 46.19 ± 0.77
313.15 K, x2 = 0.8966 | 73.1 ± 1.3
313.15 K, x2 = 0.9583 | 96.7 ± 2

C[n+]1ccn(CCC(F)(F)C(F)(F)F)c1.F[P-](F)(F)(F)(F)F + CCCC[n+]1ccn(C)c1.F[P-](F)(F)(F)(F)F
Conditions | viscosity [mPa·s]
338.16 K, 100 kPa, x2 = 0.972 | 40.9 ± 1.9

F[B-](F)(F)F.[Li+] + CCCC[n+]1ccn(C)c1.N#C[N-]C#N
electrical conductivity [S/m], 101 kPa
Conditions | x2 = 0.8903 | x2 = 0.9069 | x2 = 0.933 | x2 = 0.9549 | x2 = 0.9799
288.15 K | – | 0.426 ± 0.043 | 0.514 ± 0.052 | 0.543 ± 0.055 | 0.622 ± 0.063
298.15 K | 0.595 ± 0.06 | 0.679 ± 0.068 | 0.8 ± 0.08 | 0.842 ± 0.085 | 0.972 ± 0.098
333.15 K | 1.89 ± 0.19 | 2.07 ± 0.21 | 2.31 ± 0.23 | 2.41 ± 0.24 | 2.7 ± 0.27

CC(C)(C)O + CCCC[n+]1ccn(C)c1.O=S(=O)([N-]S(=O)(=O)C(F)(F)F)C(F)(F)F
298 K, 101 kPa
Conditions | electrical conductivity [S/m] | viscosity [mPa·s]
x1 = 0.6042 | 0.52 ± 0.064 | –
x1 = 0.653 | 0.504 ± 0.064 | –
x1 = 0.8516 | – | 9.27 ± 0.49
x2 = 0.0182 | – | 4.38 ± 0.23

CC(C)=O + CCCC[n+]1ccn(C)c1.O=S(=O)([N-]S(=O)(=O)C(F)(F)F)C(F)(F)F
296.35 K, 100 kPa, frequency 0.01 MHz
Conditions | electrical conductivity [S/m]
x2 = 0.01616 | 1.1 ± 0.04
x2 = 0.0257 | 2.71 ± 0.11
x2 = 0.0419 | 4.22 ± 0.17
x2 = 0.07374 | 5.7 ± 0.23
x2 = 0.1478 | 4.72 ± 0.19

CCCCCCCCCO + CCCC[n+]1ccn(C)c1.O=S(=O)([N-]S(=O)(=O)C(F)(F)F)C(F)(F)F
Conditions | viscosity [mPa·s]
298 K, 100 kPa, x2 = 0.9008 | 41.28 ± 0.99

C[C@@H](O)[C@H](N)C(=O)O + CCCC[n+]1ccn(C)c1.[Br-] + O
viscosity [mPa·s], 101.3 kPa
Conditions | x1 = 0.0003603, x2 = 0 | x1 = 0.0007221, x2 = 0 | x1 = 0.001078, x2 = 0 | x1 = 0.001438, x2 = 0 | x1 = 0.001779, x2 = 0 | x1 = 0.002158, x2 = 0 | x1 = 0.002516, x2 = 0
293.15 K | 1.009 ± 0.061 | 1.016 ± 0.061 | 1.023 ± 0.061 | 1.03 ± 0.061 | 1.037 ± 0.061 | 1.044 ± 0.061 | 1.051 ± 0.061
298.15 K | 0.897 ± 0.061 | 0.904 ± 0.061 | 0.911 ± 0.061 | 0.918 ± 0.061 | 0.925 ± 0.061 | 0.933 ± 0.061 | 0.94 ± 0.061
303.15 K | 0.804 ± 0.061 | 0.811 ± 0.061 | 0.818 ± 0.061 | 0.825 ± 0.061 | 0.833 ± 0.061 | 0.84 ± 0.061 | 0.847 ± 0.061
308.15 K | 0.727 ± 0.061 | 0.734 ± 0.061 | 0.741 ± 0.061 | 0.748 ± 0.061 | 0.755 ± 0.061 | 0.763 ± 0.061 | 0.77 ± 0.061
313.15 K | 0.661 ± 0.06 | 0.668 ± 0.06 | 0.675 ± 0.06 | 0.682 ± 0.06 | 0.689 ± 0.06 | 0.697 ± 0.061 | 0.704 ± 0.061

F[B-](F)(F)F.[Li+] + CCCC[n+]1ccn(C)c1.[I-]
electrical conductivity [S/m], 101 kPa
Conditions | 298.15 K | 308.15 K | 323.15 K
x1 = 0.1 | – | 0.0454 ± 0.0064 | –
x1 = 0.2 | 0.0449 ± 0.0063 | – | 0.079 ± 0.011

CCCCCC[n+]1ccn(C)c1.F[B-](F)(F)F + CCCN
Conditions | viscosity [mPa·s]
298.15 K, 101 kPa, x2 = 0 | 171.8 ± 8.1

COP(=O)([O-])OC.Cn1cc[n+](C)c1 + CCCO
101 kPa
Conditions | viscosity [mPa·s]
293.15 K, x2 = 0.3018 | 116.9 ± 3.9
298.15 K, x2 = 0 | 291 ± 18
303.15 K, x2 = 0.1993 | 115.9 ± 3.9
303.15 K, x2 = 0.5002 | 34.18 ± 0.75
303.15 K, x2 = 0.5996 | 21.48 ± 0.47
308.15 K, x2 = 0.1993 | 90.1 ± 2.5
313.15 K, x2 = 0.5996 | 15.82 ± 0.34
318.15 K, x2 = 0.098 | 74.8 ± 1.9
318.15 K, x2 = 0.4 | 30.15 ± 0.67
318.15 K, x2 = 0.5002 | 20.5 ± 0.45
323.15 K, x2 = 0.3018 | 33.41 ± 0.75
323.15 K, x2 = 0.5996 | 12.11 ± 0.26
323.15 K, x2 = 0.799 | 4.88 ± 0.1

COP(=O)([O-])OC.Cn1cc[n+](C)c1 + CCCO + O
100 kPa
Conditions | viscosity [mPa·s]
298.15 K, x2 = 0.249, x3 = 0.2451 | 90 ± 12
323.15 K, x2 = 0.15, x3 = 0.1498 | 81 ± 10
333.15 K, x2 = 0.1, x3 = 0.0998 | 85 ± 11

CC(=O)[O-].CCCC[N+](CCCC)(CCCC)CCCC + CCCOCC(C)O
electrical conductivity [S/m], 101 kPa
Conditions | x1 = 0.006949 | x1 = 0.008744 | x1 = 0.02598 | x1 = 0.03298 | x1 = 0.06584 | x1 = 0.09163 | x1 = 0.1232 | x1 = 0.1599 | x1 = 0.2312
248.15 K | 0.000652 ± 1e-06 | 0.000811 ± 1e-06 | 0.00218 ± 1e-05 | 0.00267 ± 1e-05 | 0.00439 ± 1e-05 | 0.00514 ± 1e-05 | 0.00547 ± 1e-05 | 0.00531 ± 1e-05 | 0.0042 ± 1e-05
258.15 K | 0.00115 ± 1e-05 | 0.00143 ± 1e-05 | 0.00399 ± 1e-05 | 0.00493 ± 1e-05 | 0.00847 ± 1e-05 | 0.01022 ± 1e-05 | 0.01125 ± 1e-05 | 0.01128 ± 1e-05 | 0.00942 ± 1e-05
268.15 K | 0.00182 ± 1e-05 | 0.00229 ± 1e-05 | 0.00661 ± 1e-05 | 0.00825 ± 1e-05 | 0.01473 ± 1e-05 | 0.01821 ± 1e-05 | 0.02062 ± 1e-05 | 0.02133 ± 1e-05 | 0.01883 ± 1e-05
278.15 K | 0.00269 ± 1e-05 | 0.0034 ± 0.0001 | 0.01016 ± 1e-05 | 0.01277 ± 1e-05 | 0.02353 ± 1e-05 | 0.02971 ± 1e-05 | 0.03448 ± 1e-05 | 0.03666 ± 1e-05 | 0.03401 ± 1e-05
288.15 K | 0.00374 ± 1e-05 | 0.00478 ± 1e-05 | 0.01461 ± 1e-05 | 0.01849 ± 1e-05 | 0.03502 ± 1e-05 | 0.04505 ± 1e-05 | 0.05341 ± 1e-05 | 0.05816 ± 1e-05 | 0.05632 ± 1e-05
298.15 K | 0.00498 ± 1e-05 | 0.00635 ± 1e-05 | 0.01995 ± 1e-05 | 0.02547 ± 1e-05 | 0.04947 ± 1e-05 | 0.06468 ± 1e-05 | 0.07808 ± 1e-05 | 0.08671 ± 1e-05 | 0.08711 ± 1e-05
308.15 K | 0.00637 ± 1e-05 | 0.00816 ± 1e-05 | 0.02625 ± 1e-05 | 0.03367 ± 1e-05 | 0.06676 ± 1e-05 | 0.08851 ± 1e-05 | 0.1086 ± 1e-05 | 0.1227 ± 1e-05 | 0.1274 ± 1e-05
313.15 K | 0.0071 ± 0.0001 | 0.00913 ± 1e-05 | 0.02965 ± 1e-05 | 0.03815 ± 1e-05 | 0.07641 ± 1e-05 | 0.1011 ± 1e-05 | 0.126 ± 1e-05 | 0.1436 ± 1e-05 | 0.1513 ± 1e-05
